# Source: PMC5034536, “Molecular insights into substrate recognition and catalytic mechanism of the chaperone and FKBP peptidyl-prolyl isomerase SlyD” (BMC Biology, 2016)
# Several values for one entry are separate records, joined by “and”; a condition that tells them apart may be missing. Identical values can stand only once. Like-named read-outs stand apart in the source and are kept apart here. No end group written: not given here.
# Legend:
# [1] = molecular target: T1, TtSlyDFL (full-length SlyD from Thermus thermophilus) (Thermus thermophilus, UniProt Q5SLE7); assay: ITC binding of peptides to full-length TtSlyD; details: for ΔH1 / –T · ΔS1 / N1: site 1 (IF domain)
# T1 sequence (Q5SLE7 1-149): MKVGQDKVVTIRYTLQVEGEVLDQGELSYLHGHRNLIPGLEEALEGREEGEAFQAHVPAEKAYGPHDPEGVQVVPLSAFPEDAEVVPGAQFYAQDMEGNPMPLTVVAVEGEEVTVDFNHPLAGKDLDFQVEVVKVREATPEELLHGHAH
# Protocol: ITC measurements were performed on iTC200 or VP-ITC instruments (GE Healthcare, Chalfont St. Giles, UK). The calorimetric cell (with a total cell volume of 220 μl in the iTC200, or 1400 μl in the VP-ITC) contained 50–200 μM TtSlyDFL dissolved in 20 mM HEPES, 100 mM NaCl, pH 7.5. Peptide samples of 700–2000 μM were titrated into the cell at 20 °C (VP-ITC) or 25 °C (iTC200). The heat generated after each ligand injection was obtained by integration of the calorimetric signal. Resulting binding isotherms were analyzed according to a one-site or two-site binding site model using the Origin software (OriginLab Corp., Northampton, MA, USA).
# [2] = molecular target: TtSlyDΔIF (IF domain replaced by the flap loop from human FKBP12) (Thermus thermophilus, UniProt Q5SLE7); type: binding; details: ITC one-site model (FKBP domain), 25 °C; for Kd: read-out: KD2
# [3] = Relative population of the cis form of the peptide by NMR; type: physicochemical; details: free S2-P25A peptide with 13C-labeled proline (P29); comparison of cis and trans NMR intensities; 25 °C
# Protocol: (§1) Having validated the method, we next turned to the longer unmodified peptides of interest here. […] The ^13C shifts of proline in the S2-P25A peptide show the same characteristics as an isolated proline amino acid. […] We determined apparent rate constants for TtSlyDFL and TtSlyDΔIF as a function of peptide concentration (Fig. 7b). The resulting kcat/KM value was 368 ± 4 μM^–1s^–1 for TtSlyDFL, which is a factor of 100–1000 higher compared to results obtained previously for various members of the SlyD family using tetrapeptides or unfolded proteins, and even exceeds those generally reported for FKBPs and other PPIases. […] However, the difference in kcat/KM between TtSlyDFL and TtSlyDΔIF is much smaller than what has been observed using protein substrates, and may simply relate to the lower binding affinity of TtSlyDΔIF relative to TtSlyDFL (in this scenario, KM would be larger for TtSlyDΔIF). In the case of TtSlyDFL we could separate the two parameters, yielding kcat = (0.7 ± 0.1) 10^6 s^–1 and KM = 2.0 ± 0.4 mM.
# Activity studies using the 15-residue-long S2-P25A peptide utilized a sample with a uniformly ^13C-labeled proline residue. ^1H–^13C HSQC experiments were used to separate the peptide signals in two dimensions, such that the cis and trans forms could both be detected without overlap. […]
# TtSlyDΔIF = assay: Michaelis-Menten analysis with S2-P25A peptide by NMR lineshape analysis; type: biochemical, Thermus thermophilus; details: 25 °C
# Protocol: as §1
# (§2) Lineshape analysis was performed using MATLAB.
# (§3) Activity studies using the 15-residue-long S2-P25A peptide utilized a sample with a uniformly ^13C-labeled proline residue. ^1H–^13C HSQC experiments were used to separate the peptide signals in two dimensions, such that the cis and trans forms could both be detected without overlap. […] One-dimensional ^1H slices of the β and γ protons for the cis and trans forms were extracted from the two-dimensional spectrum, and lineshape analysis was applied. Michaelis-Menten-like studies were performed using a fixed concentration of TtSlyDFL of 0.2 μM and peptide concentrations ranging from 10 to 1000 μM.
# TtSlyDFL = assay: as above; type: biochemical, Thermus thermophilus; details: 25 °C
# Protocol: as §1, §2, §3
# [4] = ITC two-site model, site 2 (FKBP domain) stoichiometry, 25 °C
# [5] = ITC two-site model, site 2 (FKBP domain), 25 °C
# [6] = ITC two-site model, 20 °C, wild-type TtSlyDFL
# [7] = ITC two-site model, site 2 (FKBP domain), 20 °C, wild-type TtSlyDFL
# [8] = ITC single binding site model, 25 °C
# [9] = ITC two-site model, 25 °C, 5 % DMSO
# [10] = ITC two-site model, site 2 (FKBP domain), 25 °C, 5 % DMSO
# [11] = S2-P25A peptide as substrate, NMR lineshape analysis
substance,measurement,setting,value
GHQTRYWNPKMKPFI-NH2 [S2-minus1],ΔH1,"[1]; ITC two-site model, 25 °C",–16.6 ± 0.12 kcal/mol
same,–T · ΔS1,"[1]; ITC two-site model, 25 °C",8.2 kcal/mol
same,N2,[1]; [4],0.82 ± 0.02
same,ΔH2,[1]; [5],–11.1 ± 0.29 kcal/mol
same,–T · ΔS2,[1]; [5],4.1 kcal/mol
KAGVHFGHQTRYWNP-NH2 [S2-minus3],ΔH1,"[1]; ITC two-site model, 25 °C",–17.0 ± 0.73 kcal/mol
same,–T · ΔS1,"[1]; ITC two-site model, 25 °C",9.4 kcal/mol
same,N2,[1]; [4],1.17 ± 0.06
same,ΔH2,[1]; [5],–2.1 ± 1.41 kcal/mol
same,–T · ΔS2,[1]; [5],–4.8 kcal/mol
KMKPFIFGARNKVHI-NH2 [S2-plus2],ΔH1,"[1]; ITC two-site model, 25 °C",–13.1 ± 0.14 kcal/mol
same,–T · ΔS1,"[1]; ITC two-site model, 25 °C",3.9 kcal/mol
same,N2,[1]; [4],0.75 ± 0.04
same,ΔH2,[1]; [5],–8.4 ± 0.39 kcal/mol
same,–T · ΔS2,[1]; [5],1.2 kcal/mol
RYWNPKMKPFIFG-NH2 [S2-short2],N1,[1]; [6],0.72 ± 0.03
same,ΔH1,[1]; [6],–9.7 ± 0.21 kcal/mol
same,–T · ΔS1,[1]; [6],0.9 kcal/mol
same,N2,[1]; [7],0.91 ± 0.02
same,ΔH2,[1]; [7],–5.5 ± 0.34 kcal/mol
same,–T · ΔS2,[1]; [7],–1.9 kcal/mol
SGLVTRGS-NH2 [SlpA linker P5T],Kd,[1],130 ± 20 µM
same,N2,[1]; [8],1.76 ± 0.12
same,ΔH2,[1]; [8],–0.9 ± 0.10 kcal/mol
same,–T · ΔS2,[1]; [8],–4.4 kcal/mol
TRYANPKMKPFIFGA-NH2 [S2-W23A],N2,[2],0.77 ± 0.02
same,ΔH2,[2],–8.1 ± 0.25 kcal/mol
same,–T · ΔS2,[2],1.6 kcal/mol
same,Kd,[2],17.1 ± 1.13 µM
same,ΔH1,"[1]; ITC two-site model, 25 °C",–15.8 ± 0.24 kcal/mol
same,–T · ΔS1,"[1]; ITC two-site model, 25 °C",7.5 kcal/mol
same,N2,[1]; [4],0.91 ± 0.40
same,ΔH2,[1]; [5],–2.3 ± 0.97 kcal/mol
same,–T · ΔS2,[1]; [5],–4.2 kcal/mol
TRYWNAKMKEFIFGA-NH2 [S2-P25A/P29E],N2,[2]; 5 % DMSO,0.84 ± 0.06
same,ΔH2,[2]; 5 % DMSO,–6.3 ± 0.58 kcal/mol
same,–T · ΔS2,[2]; 5 % DMSO,0.1 kcal/mol
same,Kd,[2]; 5 % DMSO,29 ± 4.62 µM
same,N1,[1]; [9],1.13 ± 0.03
same,ΔH1,[1]; [9],–14.1 ± 0.33 kcal/mol
same,–T · ΔS1,[1]; [9],6.1 kcal/mol
same,N2,[1]; [10],1.09 ± 0.24
same,ΔH2,[1]; [10],–5.9 ± 1.91 kcal/mol
same,–T · ΔS2,[1]; [10],–0.1 kcal/mol
TRYWNAKMKPFIFGA-NH2 [S2-P25A],relative population of the cis form (cis content),[3],14.5 ± 1%
same,N2,[2],0.91 ± 0.01
same,ΔH2,[2],–11.7 ± 0.24 kcal/mol
same,–T · ΔS2,[2],5.0 kcal/mol
same,Kd,[2],12.1 ± 0.76 µM
same,kcat/KM,"TtSlyDΔIF; S2-P25A as substrate (cis concentration), 0.2 μM enzyme",2.5 10^8 M^−1s^−1
same,kcat/KM,TtSlyDΔIF; [11],248 ± 1 μM^–1s^–1
same,kcat/KM,"TtSlyDFL; S2-P25A as substrate (cis concentration), 0.2 μM enzyme, Michaelis-Menten fitting",3.68 ± 0.04 10^8 M^−1s^−1 and 3.7 10^8 M^−1s^−1
same,kcat,TtSlyDFL; S2-P25A as substrate,0.7 ± 0.1 10^6 s^–1
same,kcat/KM,TtSlyDFL; [11],368 ± 4 μM^–1s^–1
same,ΔH1,"[1]; ITC two-site model, 25 °C",–16.6 ± 0.16 kcal/mol
same,–T · ΔS1,"[1]; ITC two-site model, 25 °C",7.2 kcal/mol
same,N2,[1]; [4],1.02 ± 0.04
same,ΔH2,[1]; [5],–8.5 ± 0.82 kcal/mol
same,–T · ΔS2,[1]; [5],1.5 kcal/mol
TRYWNNKMKNFIFGA-NH2 [S2-P25N/P29N],N1,[1]; [9],0.93 ± 0.02
same,ΔH1,[1]; [9],–16.8 ± 0.12 kcal/mol
same,–T · ΔS1,[1]; [9],7.8 kcal/mol
same,N2,[1]; [10],1.18 ± 0.18
same,ΔH2,[1]; [10],–2.3 ± 0.33 kcal/mol
same,–T · ΔS2,[1]; [10],–4.4 kcal/mol
TRYWNPKMKEFIFGA-NH2 [S2-P29E],N2,[2],0.69 ± 0.03
same,ΔH2,[2],–10.8 ± 0.27 kcal/mol
same,–T · ΔS2,[2],4.2 kcal/mol
same,Kd,[2],13.8 ± 0.88 µM
same,ΔH1,"[1]; ITC two-site model, 25 °C",–15.8 ± 0.16 kcal/mol
same,–T · ΔS1,"[1]; ITC two-site model, 25 °C",7.2 kcal/mol
same,N2,[1]; [4],1.02 ± 0.04
same,ΔH2,[1]; [5],–2.7 ± 0.48 kcal/mol
same,–T · ΔS2,[1]; [5],–4.5 kcal/mol
VHFGHQTRYWNPKMK-NH2 [S2-minus2],ΔH1,"[1]; ITC two-site model, 25 °C",–16.1 ± 0.21 kcal/mol
same,–T · ΔS1,"[1]; ITC two-site model, 25 °C",8.1 kcal/mol
same,N2,[1]; [4],0.99 ± 0.06
same,ΔH2,[1]; [5],–4.3 ± 0.92 kcal/mol
same,–T · ΔS2,[1]; [5],–2.3 kcal/mol
WNPKMKPFIFGARNK-NH2 [S2-plus1],ΔH1,"[1]; ITC two-site model, 25 °C",–11.4 ± 0.13 kcal/mol
same,–T · ΔS1,"[1]; ITC two-site model, 25 °C",2.3 kcal/mol
same,N2,[1]; [4],0.94 ± 0.03
same,ΔH2,[1]; [5],–7.8 ± 0.23 kcal/mol
same,–T · ΔS2,[1]; [5],0.4 kcal/mol
YWNPKMKPFIF-NH2 [S2-short4],N1,[1]; [6],0.73 ± 0.24
same,ΔH1,[1]; [6],–10.7 ± 2.33 kcal/mol
same,–T · ΔS1,[1]; [6],2.7 kcal/mol
same,N2,[1]; [7],0.87 ± 0.23
same,ΔH2,[1]; [7],–6.3 ± 3.02 kcal/mol
same,–T · ΔS2,[1]; [7],–0.9 kcal/mol
